Active and inactive are the calls of the source. No cut-off for these calls is given here.
tested on: Peritoneal macrophage; experiment: Cytotoxicity against mouse primary peritoneal macrophages assessed as reduction in cell viability at 10 uM after 24 hrs by MTT assay; assay type: cell-based

Compound	Activity
Cn1c(S(=O)(=O)c2ccccc2)cc2ccccc21	Non-Toxic
Cn1c(S(=O)(=O)c2ccc(Cl)cc2)cc2ccccc21	Non-Toxic
COc1ccc(S(=O)(=O)c2cc3ccccc3n2C)cc1	Non-Toxic
Cn1c(S(=O)(=O)c2cccc3ccccc23)cc2ccccc21	Non-Toxic
Cc1ccc(S(=O)(=O)c2[nH]c3ccccc3c2I)cc1	Non-Toxic
Cn1c(S(=O)(=O)c2ccc(-c3ccccc3)cc2)cc2ccccc21	Non-Toxic
COc1ccc2c(c1)cc(S(=O)(=O)c1ccc(C(F)(F)F)cc1)n2C	Non-Toxic
Cn1c(S(=O)(=O)c2ccc(C(F)(F)F)cc2)cc2ccccc21	Non-Toxic
Cc1c(S(=O)(=O)c2ccc(C(C)(C)C)cc2)n(C)c2ccccc12	Non-Toxic
Cc1ccc(S(=O)(=O)c2[nH]c3cc(C)ccc3c2I)cc1	Non-Toxic
Cc1ccc(S(=O)(=O)c2cc3ccccc3n2C)cc1	Non-Toxic
CCn1c(-c2ccccc2)c(S(=O)(=O)c2ccc(C)cc2)c2ccccc21	Non-Toxic
COc1ccc2c(c1)c(CC(=O)O)c(C)n2C(=O)c1ccc(Cl)cc1 [INDOMETHACIN]	Non-Toxic
Cc1ccc(S(=O)(=O)c2c(C)n(C)c3ccccc23)cc1	Non-Toxic
Cc1ccc(S(=O)(=O)c2cc3ccc(F)cc3n2C)cc1	Non-Toxic
Cc1ccc2cc(S(=O)(=O)c3cccc4ccccc34)[nH]c2c1	Non-Toxic

tested on: Mus musculus; experiment: Antiinflammatory activity in C57BL/6 mouse assessed as inhibition of LPS-induced IL-6 mRNA expression in lungs at 10 to 20 mg/kg, ip by RT-qPCR analysis; assay type: functional, organism-based

Compound	inhibition
Cn1c(S(=O)(=O)c2ccc(C(F)(F)F)cc2)cc2ccccc21	Active

tested on: Mus musculus; experiment: Antiinflammatory activity in C57BL/6 mouse assessed as inhibition of LPS-induced destruction of alveolar structure at 10 to 20 mg/kg, ip pretreated for 30 mins followed by LPS addition measured after 6 hrs by hematoxylin and eosin staining based microscopic analysis; assay type: functional, organism-based

Compound	inhibition
Cn1c(S(=O)(=O)c2ccc(C(F)(F)F)cc2)cc2ccccc21	Active

tested on: Mus musculus; experiment: Antiinflammatory activity in C57BL/6 mouse assessed as inhibition of LPS-induced TNF-alpha level in bronchoalveolar lavage fluid at 10 to 20 mg/kg, ip pretreated for 30 mins followed by LPS addition measured after 6 hrs; assay type: functional, organism-based

Compound	inhibition
Cn1c(S(=O)(=O)c2ccc(C(F)(F)F)cc2)cc2ccccc21	Active

tested on: Peritoneal macrophage; experiment: Antiinflammatory activity in mouse primary peritoneal macrophages assessed as inhibition of LPS-induced TNF-alpha production at 10 uM preincubated for 30 mins followed by LPS addition and measured after 24 hrs by ELISA relative to control; assay type: functional

Compound	inhibition	inhibition at 10 µM [%]
Cn1c(S(=O)(=O)c2ccccc2)cc2ccccc21	Active	–
Cn1c(S(=O)(=O)c2ccc(Cl)cc2)cc2ccccc21	Active	–
COc1ccc(S(=O)(=O)c2cc3ccccc3n2C)cc1	Active	–
Cn1c(S(=O)(=O)c2cccc3ccccc23)cc2ccccc21	Active	–
Cc1ccc(S(=O)(=O)c2[nH]c3ccccc3c2I)cc1	Active	–
Cn1c(S(=O)(=O)c2ccc(-c3ccccc3)cc2)cc2ccccc21	Active	–
COc1ccc2c(c1)cc(S(=O)(=O)c1ccc(C(F)(F)F)cc1)n2C	Active	–
Cn1c(S(=O)(=O)c2ccc(C(F)(F)F)cc2)cc2ccccc21	–	82
Cc1c(S(=O)(=O)c2ccc(C(C)(C)C)cc2)n(C)c2ccccc12	Active	–
Cc1ccc(S(=O)(=O)c2[nH]c3cc(C)ccc3c2I)cc1	Active	–
Cc1ccc(S(=O)(=O)c2cc3ccccc3n2C)cc1	–	82
CCn1c(-c2ccccc2)c(S(=O)(=O)c2ccc(C)cc2)c2ccccc21	Active	–
COc1ccc2c(c1)c(CC(=O)O)c(C)n2C(=O)c1ccc(Cl)cc1 [INDOMETHACIN]	Active	–
Cc1ccc(S(=O)(=O)c2c(C)n(C)c3ccccc23)cc1	Active	–
Cc1ccc(S(=O)(=O)c2cc3ccc(F)cc3n2C)cc1	Active	–
Cc1ccc2cc(S(=O)(=O)c3cccc4ccccc34)[nH]c2c1	Active	–

tested on: Peritoneal macrophage; experiment: Antiinflammatory activity in mouse primary peritoneal macrophages assessed as inhibition of LPS-induced IL-6 production preincubated for 30 mins followed by LPS addition and measured after 24 hrs by ELISA; assay type: functional, cell-based

IC50 [µM]	Compound	inhibition
1.12	COc1ccc(S(=O)(=O)c2cc3ccccc3n2C)cc1	–
1.82	Cn1c(S(=O)(=O)c2ccc(C(F)(F)F)cc2)cc2ccccc21	Dose-dependent effect
2.39	Cc1ccc(S(=O)(=O)c2cc3ccccc3n2C)cc1	Dose-dependent effect

tested on: Mus musculus; experiment: Antiinflammatory activity in C57BL/6 mouse assessed as inhibition of LPS-induced inflammatory cell infiltration at 10 to 20 mg/kg, ip pretreated for 30 mins followed by LPS addition measured after 6 hrs by hematoxylin and eosin staining based microscopic analysis; assay type: functional, organism-based

Compound	inhibition
Cn1c(S(=O)(=O)c2ccc(C(F)(F)F)cc2)cc2ccccc21	Active

tested on: Mus musculus; experiment: Antiinflammatory activity in C57BL/6 mouse assessed as reduction in lung wet/dry ratio at 10 to 20 mg/kg, ip pretreated for 30 mins followed by LPS addition measured after 6 hrs; assay type: functional, organism-based

Compound	Activity
Cn1c(S(=O)(=O)c2ccc(C(F)(F)F)cc2)cc2ccccc21	Active

tested on: Mus musculus; experiment: Antiinflammatory activity in C57BL/6 mouse assessed as inhibition of LPS-induced IL-1beta mRNA expression in lungs at 10 to 20 mg/kg, ip by RT-qPCR analysis; assay type: functional, organism-based

Compound	inhibition
Cn1c(S(=O)(=O)c2ccc(C(F)(F)F)cc2)cc2ccccc21	Active

tested on: Peritoneal macrophage; experiment: Antiinflammatory activity in mouse primary peritoneal macrophages assessed as inhibition of LPS-induced VCAM-1 mRNA expression at 5 to 10 uM by RT-qPCR analysis; assay type: functional, cell-based

Compound	inhibition
Cn1c(S(=O)(=O)c2ccc(C(F)(F)F)cc2)cc2ccccc21	Active

tested on: Mus musculus; experiment: Antiinflammatory activity in C57BL/6 mouse assessed as inhibition of LPS-induced IL-6 level in bronchoalveolar lavage fluid at 10 to 20 mg/kg, ip pretreated for 30 mins followed by LPS addition measured after 6 hrs; assay type: functional, organism-based

Compound	inhibition
Cn1c(S(=O)(=O)c2ccc(C(F)(F)F)cc2)cc2ccccc21	Active

tested on: Peritoneal macrophage; experiment: Antiinflammatory activity in mouse primary peritoneal macrophages assessed as inhibition of LPS-induced TNF-alpha production preincubated for 30 mins followed by LPS addition and measured after 24 hrs by ELISA; assay type: functional, cell-based

IC50 [µM]	Compound	inhibition
59.4	COc1ccc(S(=O)(=O)c2cc3ccccc3n2C)cc1	–
8.01	Cn1c(S(=O)(=O)c2ccc(C(F)(F)F)cc2)cc2ccccc21	Dose-dependent effect
11.9	Cc1ccc(S(=O)(=O)c2cc3ccccc3n2C)cc1	Dose-dependent effect

tested on: Mus musculus; experiment: Antiinflammatory activity in C57BL/6 mouse assessed as inhibition of LPS-induced lung edema at 10 to 20 mg/kg, ip pretreated for 30 mins followed by LPS addition measured after 6 hrs by hematoxylin and eosin staining based microscopic analysis; assay type: functional, organism-based

Compound	inhibition
Cn1c(S(=O)(=O)c2ccc(C(F)(F)F)cc2)cc2ccccc21	Active

tested on: Mus musculus; experiment: Antiinflammatory activity in C57BL/6 mouse assessed as inhibition of LPS-induced VCAM-1 mRNA expression in lungs at 10 to 20 mg/kg, ip by RT-qPCR analysis; assay type: functional, organism-based

Compound	inhibition
Cn1c(S(=O)(=O)c2ccc(C(F)(F)F)cc2)cc2ccccc21	Active

tested on: Mus musculus; experiment: Antiinflammatory activity in C57BL/6 mouse assessed as inhibition of LPS-induced total protein level in bronchoalveolar lavage fluid at 10 to 20 mg/kg, ip pretreated for 30 mins followed by LPS addition measured after 6 hrs; assay type: functional, organism-based

Compound	inhibition
Cn1c(S(=O)(=O)c2ccc(C(F)(F)F)cc2)cc2ccccc21	Active

tested on: Peritoneal macrophage; experiment: Antiinflammatory activity in mouse primary peritoneal macrophages assessed as inhibition of LPS-induced IL-6 mRNA expression at 5 to 10 uM by RT-qPCR analysis; assay type: functional, cell-based

Compound	inhibition
Cn1c(S(=O)(=O)c2ccc(C(F)(F)F)cc2)cc2ccccc21	Active

tested on: Mus musculus; experiment: Antiinflammatory activity in C57BL/6 mouse assessed as inhibition of LPS-induced total number of cells in bronchoalveolar lavage fluid at 10 to 20 mg/kg, ip pretreated for 30 mins followed by LPS addition measured after 6 hrs by Giemsa staining-based assay; assay type: functional, organism-based

Compound	inhibition
Cn1c(S(=O)(=O)c2ccc(C(F)(F)F)cc2)cc2ccccc21	Active

tested on: Mus musculus; experiment: Antiinflammatory activity in C57BL/6 mouse assessed as inhibition of LPS-induced macrophage filtration in lung by measuring CD68 protein expression at 10 to 20 mg/kg, ip pretreated for 30 mins followed by LPS addition measured after 6 hrs by immunohistochemistry; assay type: functional, organism-based

Compound	inhibition
Cn1c(S(=O)(=O)c2ccc(C(F)(F)F)cc2)cc2ccccc21	Active

tested on: Peritoneal macrophage; experiment: Antiinflammatory activity in mouse primary peritoneal macrophages assessed as inhibition of LPS-induced IL-6 production at 10 uM preincubated for 30 mins followed by LPS addition and measured after 24 hrs by ELISA relative to control; assay type: functional

Compound	inhibition	inhibition at 10 µM [%]
Cn1c(S(=O)(=O)c2ccccc2)cc2ccccc21	Active	–
Cn1c(S(=O)(=O)c2ccc(Cl)cc2)cc2ccccc21	Active	–
COc1ccc(S(=O)(=O)c2cc3ccccc3n2C)cc1	Active	–
Cn1c(S(=O)(=O)c2cccc3ccccc23)cc2ccccc21	Active	–
Cc1ccc(S(=O)(=O)c2[nH]c3ccccc3c2I)cc1	Active	–
Cn1c(S(=O)(=O)c2ccc(-c3ccccc3)cc2)cc2ccccc21	Active	–
COc1ccc2c(c1)cc(S(=O)(=O)c1ccc(C(F)(F)F)cc1)n2C	Active	–
Cn1c(S(=O)(=O)c2ccc(C(F)(F)F)cc2)cc2ccccc21	–	88
Cc1c(S(=O)(=O)c2ccc(C(C)(C)C)cc2)n(C)c2ccccc12	Active	–
Cc1ccc(S(=O)(=O)c2[nH]c3cc(C)ccc3c2I)cc1	Active	–
Cc1ccc(S(=O)(=O)c2cc3ccccc3n2C)cc1	–	88
CCn1c(-c2ccccc2)c(S(=O)(=O)c2ccc(C)cc2)c2ccccc21	Active	–
COc1ccc2c(c1)c(CC(=O)O)c(C)n2C(=O)c1ccc(Cl)cc1 [INDOMETHACIN]	Active	–
Cc1ccc(S(=O)(=O)c2c(C)n(C)c3ccccc23)cc1	Active	–
Cc1ccc(S(=O)(=O)c2cc3ccc(F)cc3n2C)cc1	Active	–
Cc1ccc2cc(S(=O)(=O)c3cccc4ccccc34)[nH]c2c1	Active	–

tested on: Mus musculus; experiment: Antiinflammatory activity in C57BL/6 mouse assessed as inhibition of LPS-induced neutrophil filtration in lung by measuring myeloperoxidase activity at 10 to 20 mg/kg, ip pretreated for 30 mins followed by LPS addition measured after 6 hrs by Giemsa staining-based assay; assay type: functional, organism-based

Compound	inhibition
Cn1c(S(=O)(=O)c2ccc(C(F)(F)F)cc2)cc2ccccc21	Active

tested on: Peritoneal macrophage; experiment: Antiinflammatory activity in mouse primary peritoneal macrophages assessed as inhibition of LPS-induced IL-1beta mRNA expression at 5 to 10 uM by RT-qPCR analysis; assay type: functional, cell-based

Compound	inhibition
Cn1c(S(=O)(=O)c2ccc(C(F)(F)F)cc2)cc2ccccc21	Active

tested on: Mus musculus; experiment: Antiinflammatory activity in C57BL/6 mouse assessed as inhibition of LPS-induced alveolar hemorrhage at 10 to 20 mg/kg, ip pretreated for 30 mins followed by LPS addition measured after 6 hrs by hematoxylin and eosin staining based microscopic analysis; assay type: functional, organism-based

Compound	inhibition
Cn1c(S(=O)(=O)c2ccc(C(F)(F)F)cc2)cc2ccccc21	Active
